Earlier results in patent US11696883B2, “Compositions for reducing hair loss and/or increasing hair regrowth” (Triple Hair Inc., priority 2014, dated 2023).
Read-outs that look alike come from different tables or passages of the source.

Assays:
[1] = latanoprost in ophthalmology use
hair loss = conditions: topical
[2] = system: prostaglandin endoperoxide synthase-1 (PGHS-1); conditions: Michelet et al. 1997

| SMILES | other adverse effects [1] | side effects [1] | solubility (in acetone, ethanol, ethyl acetate, isopropanol, methanol and octanol) | solubility (in acetonitrile) | solubility (in water) | effective in promoting regrowth of the hair (hair loss) | activation of purified PGHS-1 [2] | solubility (in 0.1N HCl and 0.1N NaOH) | solubility (in chloroform, DMSO, ethanol, methanol, n-propanol) | solubility (in propylene glycol, polyethylene glycol 400) |
| --- | --- | --- | --- | --- | --- | --- | --- | --- | --- | --- |
| CC(C)OC(=O)CCC/C=C\C[C@@H]1[C@@H](CC[C@@H](O)CCc2ccccc2)[C@H](O)C[C@@H]1O [Latanoprost] | erythema, folliculitis, sensation of burning and erysipelas | augmentation of periocular hirsuteness | freely soluble | very soluble | practically insoluble |  |  |  |  |  |
| Nc1cc(N2CCCCC2)nc(N)[n+]1[O-] [Minoxidil, 6-(1-pipedidinyl)-2,4-pyrimidinediamine 3-oxide] |  |  |  |  |  | less than 40% | potent activator |  |  |  |
| CC(C)(C)NC(=O)[C@H]1CC[C@H]2[C@@H]3CC[C@H]4NC(=O)C=C[C@]4(C)[C@H]3CC[C@]12C [Finasteride, (5α,17β)-N-(1,1-Dimethylethyl)-3-oxo-4-azaandrost-1-ene-17-carboxamide] |  |  |  |  | not soluble |  |  | very slightly soluble | freely soluble | sparingly soluble |
